How the values were obtained:
[1] = biological target: Phosphatidylinositol 4,5-bisphosphate 3-kinase catalytic subunit gamma isoform (Homo sapiens, UniProt P48736); experiment: Inhibition of PI3K gamma (unknown origin)
[2] = biological target: T1, Mitogen-activated protein kinase 13 (Homo sapiens) (UniProt O15264); experiment: Inhibition of SAPK4 (unknown origin) assessed as enzyme activity at 1 uM using 33P ATP by radioactive filter binding assay; design: scale not given: the % may be the effect or the level left
T1 sequence (whole entry): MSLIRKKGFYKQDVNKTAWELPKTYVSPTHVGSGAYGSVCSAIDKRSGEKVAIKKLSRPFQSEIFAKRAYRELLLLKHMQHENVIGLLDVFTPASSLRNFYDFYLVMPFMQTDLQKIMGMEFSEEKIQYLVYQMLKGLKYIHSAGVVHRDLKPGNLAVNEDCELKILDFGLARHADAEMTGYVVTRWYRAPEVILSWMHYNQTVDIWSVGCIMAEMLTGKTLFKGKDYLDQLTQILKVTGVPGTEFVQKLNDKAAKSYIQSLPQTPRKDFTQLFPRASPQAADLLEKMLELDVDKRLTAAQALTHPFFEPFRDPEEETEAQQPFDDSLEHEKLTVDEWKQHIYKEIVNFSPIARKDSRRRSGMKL

[3] = biological target: Serine/threonine-protein kinase pim-1 (Homo sapiens) (UniProt P11309); experiment: Inhibition of human PIM1 (2 to 313 residues) assessed as enzyme activity at 1 uM using 33P ATP by radioactive filter binding assay; design: scale not given: the % may be the effect or the level left
[4] = biological target: Serine/threonine-protein kinase PAK 4 (Homo sapiens) (UniProt O96013); experiment: Inhibition of human PAK4 (2 to 591 residues) assessed as enzyme activity at 1 uM using 33P ATP by radioactive filter binding assay; design: scale not given: the % may be the effect or the level left
[5] = biological target: Maternal embryonic leucine zipper kinase (Homo sapiens) (UniProt Q14680); experiment: Inhibition of human MELK (2 to 651 residues) assessed as enzyme activity at 1 uM using 33P ATP by radioactive filter binding assay; design: scale not given: the % may be the effect or the level left
[6] = biological target: T2, Serine/threonine-protein kinase Sgk1 (Homo sapiens) (UniProt O00141); experiment: Inhibition of human SGK assessed as enzyme activity at 1 uM using 33P ATP by radioactive filter binding assay; design: scale not given: the % may be the effect or the level left
T2 sequence (whole entry): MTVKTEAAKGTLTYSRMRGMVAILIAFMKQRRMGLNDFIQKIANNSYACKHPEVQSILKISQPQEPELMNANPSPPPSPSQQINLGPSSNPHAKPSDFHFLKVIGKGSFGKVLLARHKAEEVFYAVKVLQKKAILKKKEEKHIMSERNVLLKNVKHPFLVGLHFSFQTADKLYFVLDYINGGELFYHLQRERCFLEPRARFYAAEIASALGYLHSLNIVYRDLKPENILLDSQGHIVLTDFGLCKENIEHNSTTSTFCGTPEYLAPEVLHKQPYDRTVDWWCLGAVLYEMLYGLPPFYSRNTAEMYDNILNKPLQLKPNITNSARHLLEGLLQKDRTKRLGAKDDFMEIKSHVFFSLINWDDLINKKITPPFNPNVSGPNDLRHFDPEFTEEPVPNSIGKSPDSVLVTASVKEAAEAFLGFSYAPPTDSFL

[7] = biological target: T3, Protein kinase C zeta type (Homo sapiens) (UniProt Q05513); experiment: Inhibition of human PKCzeta (2 to 592 residues) assessed as enzyme activity at 1 uM using 33P ATP by radioactive filter binding assay; design: scale not given: the % may be the effect or the level left
T3 sequence (whole entry): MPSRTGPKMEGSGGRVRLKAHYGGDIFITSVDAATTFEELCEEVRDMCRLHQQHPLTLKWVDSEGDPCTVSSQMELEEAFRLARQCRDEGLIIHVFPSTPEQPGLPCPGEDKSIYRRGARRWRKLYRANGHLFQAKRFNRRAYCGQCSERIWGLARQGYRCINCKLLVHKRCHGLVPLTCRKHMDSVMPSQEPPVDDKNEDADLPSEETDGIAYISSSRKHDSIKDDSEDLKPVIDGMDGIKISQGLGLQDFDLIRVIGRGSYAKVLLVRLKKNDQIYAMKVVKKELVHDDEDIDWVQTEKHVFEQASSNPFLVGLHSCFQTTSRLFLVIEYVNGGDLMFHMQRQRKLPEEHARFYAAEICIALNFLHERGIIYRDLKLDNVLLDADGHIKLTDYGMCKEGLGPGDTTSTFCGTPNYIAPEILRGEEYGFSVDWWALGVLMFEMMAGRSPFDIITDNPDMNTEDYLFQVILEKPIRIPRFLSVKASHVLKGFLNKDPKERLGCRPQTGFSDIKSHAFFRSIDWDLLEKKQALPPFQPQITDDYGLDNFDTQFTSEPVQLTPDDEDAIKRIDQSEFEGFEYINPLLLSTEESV

[8] = biological target: Serine/threonine-protein kinase PAK 6 (Homo sapiens) (UniProt Q9NQU5); experiment: Inhibition of human PAK6 (2 to 681 residues) assessed as enzyme activity at 1 uM using 33P ATP by radioactive filter binding assay; design: scale not given: the % may be the effect or the level left
[9] = biological target: Glycogen synthase kinase-3 beta (Homo sapiens) (UniProt P49841); experiment: Inhibition of human GSK3beta (2 to 420 residues) assessed as enzyme activity at 1 uM using 33P ATP by radioactive filter binding assay; design: scale not given: the % may be the effect or the level left
[10] = biological target: T4, Inhibitor of nuclear factor kappa-B kinase subunit beta (Homo sapiens) (UniProt O14920); experiment: Inhibition of human IKKbeta (1 to 736 residues) assessed as enzyme activity at 1 uM using 33P ATP by radioactive filter binding assay; design: scale not given: the % may be the effect or the level left
T4 sequence (whole entry): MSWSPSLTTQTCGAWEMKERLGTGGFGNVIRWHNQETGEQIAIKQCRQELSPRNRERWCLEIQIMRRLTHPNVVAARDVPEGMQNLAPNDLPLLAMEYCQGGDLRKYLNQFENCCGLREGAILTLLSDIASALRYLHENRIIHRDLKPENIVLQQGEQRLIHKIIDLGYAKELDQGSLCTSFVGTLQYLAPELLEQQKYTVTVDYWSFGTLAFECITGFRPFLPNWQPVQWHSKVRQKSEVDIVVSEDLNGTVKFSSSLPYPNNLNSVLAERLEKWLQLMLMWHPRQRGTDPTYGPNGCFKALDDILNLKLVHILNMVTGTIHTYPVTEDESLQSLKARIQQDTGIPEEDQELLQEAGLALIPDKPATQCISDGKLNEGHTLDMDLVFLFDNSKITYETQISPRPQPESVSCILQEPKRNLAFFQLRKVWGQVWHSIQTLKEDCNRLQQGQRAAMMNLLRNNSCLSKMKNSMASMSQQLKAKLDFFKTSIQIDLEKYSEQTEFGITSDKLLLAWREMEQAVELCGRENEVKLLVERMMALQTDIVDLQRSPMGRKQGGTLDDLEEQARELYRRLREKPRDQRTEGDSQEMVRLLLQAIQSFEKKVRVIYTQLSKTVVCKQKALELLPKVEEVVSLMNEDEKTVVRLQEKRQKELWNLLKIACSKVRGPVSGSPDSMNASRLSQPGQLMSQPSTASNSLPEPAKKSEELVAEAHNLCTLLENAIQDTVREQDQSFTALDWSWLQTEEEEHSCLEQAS

[11] = biological target: Ribosomal protein S6 kinase alpha-3 (Homo sapiens) (UniProt P51812); experiment: Inhibition of human MAPKAPK1beta assessed as enzyme activity at 1 uM using 33P ATP by radioactive filter binding assay; design: scale not given: the % may be the effect or the level left

| IC50 [1] [µM] | Activity [2] [%] | Activity [3] [%] | Activity [4] [%] | Activity [5] [%] | Activity [6] [%] | Activity [7] [%] | Activity [8] [%] | Activity [9] [%] | Activity [10] [%] | Activity [11] [%] | Compound |
| --- | --- | --- | --- | --- | --- | --- | --- | --- | --- | --- | --- |
| > 10 | -37 | -61 | 1 | -89 | -12 | -43 | 3 | -86 | -27 | -17 | CCCCc1cc(-c2c[nH]c3ncccc23)nc(N)n1 |
| > 10 | -27 | -62 | -22 | -64 | -42 | -35 | -27 | -77 | -45 | -46 | Nc1nccc(-c2c[nH]c3ncccc23)n1 [MERIOLIN 1] |
| – | -34 | -98 | -60 | -85 | -78 | -42 | -50 | -94 | -63 | -92 | CCCCc1cc(-c2c[nH]c3ncc(-c4cnn(C5CCNCC5)c4)cc23)nc(N)n1 |
| > 10 | -22 | -85 | -47 | -81 | -78 | -18 | -5 | -94 | -46 | -71 | CCc1cc(-c2c[nH]c3ncc(-c4cnn(C5CCNCC5)c4)cc23)nc(N)n1 |
